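All cell lines were grown in 96-well plates and treated with compound for 48 hours. Abbreviation: GI50, concentration required for 50% inhibition of growth. Definition used: TGI = concentration required for complete inhibition of growth.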
Legend:
Assay in all cases: NCI-60 cell line screen, 48 h
[1] = tested on: 786-0 renal
[2] = tested on: A498 renal
[3] = tested on: A549 NSCLC
[4] = tested on: ACHN renal
[5] = tested on: CAKI-1 renal
[6] = tested on: CCRF-CEM leukemia
[7] = tested on: COLO 205 colon
[8] = tested on: DU-145 prostate
[9] = tested on: EKVX NSCLC
[10] = tested on: HCC-2998 colon
[11] = tested on: HCT-116 colon
[12] = tested on: HCT-15 colon
[13] = tested on: HL-60(TB) leukemia
[14] = tested on: HOP-62 NSCLC
[15] = tested on: HS 578T breast
[16] = tested on: HT29 colon
[17] = tested on: IGROV1 ovarian
[18] = tested on: K-562 leukemia
[19] = tested on: KM12 colon
[20] = tested on: LOX IMVI melanoma
[21] = tested on: M14 melanoma
[22] = tested on: MALME-3M melanoma
[23] = tested on: MCF7 breast
[24] = tested on: MDA-MB-231 breast
[25] = tested on: MDA-MB-435
[26] = tested on: MDA-N
[27] = tested on: MOLT-4 leukemia
[28] = tested on: NCI-H226 lung
[29] = tested on: NCI-H23 lung
[30] = tested on: NCI-H460 lung
[31] = tested on: NCI-H522 lung
[32] = tested on: NCI/ADR-RES ovarian
[33] = tested on: OVCAR-3 ovarian
[34] = tested on: OVCAR-4 ovarian
[35] = tested on: OVCAR-5 ovarian
[36] = tested on: OVCAR-8 ovarian
[37] = tested on: PC-3 prostate
[38] = tested on: RPMI-8226 leukemia
[39] = tested on: RXF 393 renal
[40] = tested on: SF-268 CNS
[41] = tested on: SF-295 CNS
[42] = tested on: SF-539 CNS
[43] = tested on: SK-MEL-2 melanoma
[44] = tested on: SK-MEL-28 melanoma
[45] = tested on: SK-MEL-5 melanoma
[46] = tested on: SK-OV-3 ovarian
[47] = tested on: SN12C renal
[48] = tested on: SNB-75 CNS
[49] = tested on: SR leukemia
[50] = tested on: SW-620 colon
[51] = tested on: T-47D breast
[52] = tested on: U251 CNS
[53] = tested on: UACC-257 melanoma
[54] = tested on: UACC-62 melanoma
[55] = tested on: BT-549 breast
[56] = tested on: HOP-92 NSCLC
[57] = tested on: SNB-19 CNS
[58] = tested on: UO-31 renal

For `CC(=O)N=C1N(/C=C2\C(=O)Oc3ccccc3C2=O)C(=O)/C(=C/c2ccc(NC(C)=O)cc2)N1C`, the TGI [1] was over 100000 nM, the TGI [2] was over 100000 nM and the TGI [3] was over 100000 nM. The TGI [4] was over 100000 nM, the TGI [5] was over 100000 nM and the TGI [6] was over 100000 nM. It also gave a TGI [7] of over 100000 nM, a TGI [8] of over 100000 nM and a TGI [9] of over 100000 nM. It also gave a TGI [10] of over 100000 nM, a TGI [11] of over 100000 nM and a TGI [12] of over 100000 nM. It also gave a TGI [13] of over 100000 nM, a TGI [14] of over 100000 nM and a TGI [15] of over 100000 nM. The TGI [16] was over 100000 nM, the TGI [17] was over 100000 nM and the TGI [18] was over 100000 nM. For the same compound, the TGI [19] was over 100000 nM, the TGI [20] was over 100000 nM and the TGI [21] was over 100000 nM. The TGI [22] was over 100000 nM, the TGI [23] was over 100000 nM and the TGI [24] was over 100000 nM. For the same compound, the TGI [25] was over 100000 nM, the TGI [26] was over 100000 nM and the TGI [27] was over 100000 nM. It also gave a TGI [28] of over 100000 nM, a TGI [29] of over 100000 nM and a TGI [30] of over 100000 nM. The TGI [31] was over 100000 nM, the TGI [32] was over 100000 nM and the TGI [33] was over 100000 nM. It also gave a TGI [34] of over 100000 nM, a TGI [35] of over 100000 nM and a TGI [36] of over 100000 nM. For the same compound, the TGI [37] was over 100000 nM, the TGI [38] was over 100000 nM and the TGI [39] was over 100000 nM. For the same compound, the TGI [40] was over 100000 nM, the TGI [41] was over 100000 nM and the TGI [42] was over 100000 nM. For the same compound, the TGI [43] was over 100000 nM, the TGI [44] was over 100000 nM and the TGI [45] was over 100000 nM. For the same compound, the TGI [46] was over 100000 nM, the TGI [47] was over 100000 nM and the TGI [48] was over 100000 nM. It also gave a TGI [49] of over 100000 nM, a TGI [50] of over 100000 nM and a TGI [51] of over 100000 nM. It also gave a TGI [52] of over 100000 nM, a TGI [53] of over 100000 nM and a TGI [54] of over 100000 nM.
In the case of `COc1ccc2nc3cc([N+](=O)[O-])ccc3c(NCCCN(C)C)c2c1`, the GI50 [1] is reported as 174 nM, the TGI [1] is reported as 1280 nM and the GI50 [2] is reported as 1870 nM. It also gave a TGI [2] of 5720 nM, a GI50 [3] of 278 nM and a TGI [3] of 10100 nM. It also gave a GI50 [4] of 418 nM, a TGI [4] of 3090 nM and a GI50 [55] of 2650 nM. It also gave a TGI [55] of 5260 nM, a GI50 [5] of 1240 nM and a TGI [5] of 3830 nM. The GI50 [6] was 557 nM, the TGI [6] was 4310 nM and the GI50 [7] was 221 nM. For the same compound, the TGI [7] was 2170 nM, the GI50 [8] was 175 nM and the TGI [8] was 11900 nM. The GI50 [9] was 2250 nM, the TGI [9] was 7910 nM and the GI50 [11] was 36 nM. It also gave a TGI [11] of 1250 nM, a GI50 [12] of 3460 nM and a GI50 [13] of 95.3 nM. The GI50 [14] was 31.5 nM, the TGI [14] was 202 nM and the GI50 [56] was 149 nM. It also gave a TGI [56] of 651 nM, a GI50 [15] of 372 nM and a TGI [15] of 4760 nM. The GI50 [16] was 39.7 nM, the TGI [16] was 1120 nM and the GI50 [17] was 363 nM. For the same compound, the TGI [17] was 3590 nM, the GI50 [18] was 36.1 nM and the TGI [18] was 183 nM. It also gave a GI50 [20] of 249 nM, a TGI [20] of 1080 nM and a GI50 [21] of 176 nM. It also gave a TGI [21] of 412 nM, a GI50 [22] of 287 nM and a TGI [22] of 878 nM. It also gave a GI50 [23] of 30.4 nM, a TGI [23] of 204 nM and a GI50 [24] of 394 nM. For the same compound, the TGI [24] was 3450 nM, the GI50 [25] was 247 nM and the TGI [25] was 1000 nM. The GI50 [26] was 491 nM, the TGI [26] was 2000 nM and the GI50 [27] was 43.2 nM. The TGI [27] was 680 nM, the GI50 [28] was 251 nM and the TGI [28] was 2420 nM. The GI50 [29] was 170 nM, the TGI [29] was 737 nM and the GI50 [30] was 40.9 nM. The TGI [30] was 1500 nM, the GI50 [31] was 19.9 nM and the TGI [31] was 59.7 nM. The GI50 [32] was 2460 nM, the TGI [32] was 14200 nM and the GI50 [33] was 594 nM. It also gave a TGI [33] of 7860 nM, a GI50 [34] of 95.9 nM and a TGI [34] of 539 nM. For the same compound, the GI50 [35] was 768 nM, the TGI [35] was 4510 nM and the GI50 [36] was 89.5 nM. It also gave a TGI [36] of 1590 nM, a TGI [37] of 1550 nM and a GI50 [38] of 38 nM. It also gave a TGI [38] of 437 nM, a GI50 [40] of 295 nM and a TGI [40] of 1740 nM. For the same compound, the GI50 [41] was 350 nM, the TGI [41] was 2390 nM and the GI50 [42] was 520 nM. The TGI [42] was 3190 nM, the GI50 [44] was 504 nM and the TGI [44] was 2870 nM. For the same compound, the GI50 [45] was 187 nM, the TGI [45] was 832 nM and the GI50 [46] was 231 nM. For the same compound, the TGI [46] was 3130 nM, the GI50 [47] was 111 nM and the TGI [47] was 768 nM. It also gave a GI50 [57] of 299 nM, a TGI [57] of 2610 nM and a GI50 [48] of 310 nM. The TGI [48] was 1530 nM, the GI50 [49] was 79.4 nM and the GI50 [50] was 67 nM. The TGI [50] was 1390 nM, the GI50 [52] was 44.1 nM and the TGI [52] was 375 nM. It also gave a GI50 [53] of 1710 nM, a TGI [53] of 4410 nM and a GI50 [54] of 384 nM. For the same compound, the TGI [54] was 1640 nM, the GI50 [58] was 1630 nM and the TGI [58] was 6100 nM.
